“And” between values parts separate entries of the source, which are not always exact repeats. Equal entries are not always repeated.
Tests used:
[1] = tested on: MiaPaCa-2 cells; assay: Radiosensitization (X-radiation, clonogenic survival); assay type: cell-based, human; details: for PDAC radiosensitivity: 24 h pretreatment before X-radiation
Description: MiaPaCa2 cells (1000 cells/well) were cultured in quadruplicate overnight in 96-well plates and changed to fresh medium.
(§1) Radiation experiments. […] The cells were then treated with X-radiation at a dose of 0, 2, 4, and 6 Gy. The control cells were treated with the same concentration of vehicle (0.1% DMSO) where appropriate. After irradiation, cells were suspended and seeded at various densities (100-8,000 cells per well) in 6-well plates for clonogenic assay as described above. The plates were kept within the incubator and media changed every 3-4 days for 2 weeks. Wells with 10-50 sufficiently large clones were chosen for calculating the cell survival fractions.

[2] = tested on: MCF-10A cells; assay: Radiosensitization (X-radiation, clonogenic survival) in normal cells; assay type: cell-based; details: 1 μM pretreatment
Description: as §1

[3] = tested on: MiaPaCa-2 cell 3D spheroids; assay: Three-dimensional spheroid growth in Matrigel; assay type: cell-based, human; details: 0.5 μM, compared to Met 10,000 μM
Description: Three-dimensional spheroid cell cultures of PDAC. MiaPaCa-2 cells (5,000) were seeded in 96-well plates containing Matrigel (Corning), used as scaffold. This typical 3D-cell culture system allows spheroids to form within the matrix. […] At days 3, 7, and 14 the wells were observed by bright-field microscopy and images acquired on a Nikon Eclipse Ti inverted microscope (Nikon instrument Inc., NY, USA). Spheroid-forming cells were counted using the Nikon NIS Elements imaging software (Nikon). Data are expressed as mean and SD of number of spheroids.

[4] = mouse
Description: In an initial proof-of-concept experiment, syngeneic KPC cells expressing Firefly luciferase (FC1242-luc) were orthotopically implanted to the pancreas of C57BL/6 mice and tumor growth monitored using bioluminescence imaging (FIG. 15F). Mice orthotopically autografted with FC1242-luc cells were treated daily with 1 mg/kg or 150 mg/kg Met, or 1 mg/kg Mito-Met. […] Serum from these animals was collected, and hepatic and kidney toxicity tested using standard AST, ALT, AP, and BUN assays, respectively.

[5] = tested on: FC1242-luc autografts; assay: Orthotopic syngeneic FC1242-luc tumor growth, bioluminescence imaging and calipers; assay type: in vivo, C57BL/6 mice; details: for in vivo tumor growth relative to Met: 1 mg/kg daily, intraperitoneal
Text: In vivo studies and bioluminescence imaging.

[6] = tested on: MiaPaCa-2 cells; assay: Oxygen consumption rate in intact cells, Seahorse XF96; assay type: cell-based, human; details: for OCR inhibition: immediately after addition; for concentration that inhibited OCR: intact MiaPaCa-2, after 24 h treatment and washout
Description: (§2) Respiratory enzyme activity in intact and permeabilized cells. The mitochondrial function in intact and permeabilized pancreatic cancer cells was measured using a Seahorse XF96 Extracellular Flux Analyzer (Seahorse Bioscience, North Billerica, Mass., USA). Unless specified otherwise, assays in intact cells were performed as previously described. Measurement of mitochondrial respiratory complexes in permeabilized cells was performed according to the manufacturer's instructions (Seahorse Bioscience). Briefly, intact cells were permeabilized using 1 nM Plasma Membrane Permeabilizer (PMP, Seahorse Bioscience) immediately before oxygen consumption rate (OCR) measurement by XF96. The oxygen consumption derived from mitochondrial complex I or complex II activity was measured by providing different substrates to mitochondria, e.g., pyruvate/malate for complex I and succinate for complex II activity. Rotenone, malonate and antimycin A were used as specific inhibitors of mitochondrial complex I, II and III activities, respectively.
Effects of Met and Mito-Met analogs on mitochondrial bioenergetics in MiaPaCa-2 cells. The oxygen consumption rate (OCR) and the extracellular acidification rate (ECAR) were measured as a readout of mitochondrial function and glycolysis using a Seahorse Bioscience XF96 extracellular flux analyzer. We compared the immediate OCR changes in response to different concentrations (e.g., IC50 or higher values determined by clonogenic assay) of Met, Mito-Met2, Mito-Met6, Mito-Met10, and phenformin (FIG. 13A).

[7] = tested on: MiaPaCa-2 cells
Description: Cells were grown on 10 cm dishes and treated with the compounds for 24 h in full media.
Next we investigated the relative uptake of different Mito-Met analogs (Mito-Met2, Mito-Met6, and Mito-Met10) and phenformin in MiaPaCa-2 cells (FIG. 12D). Cells were treated with respective Mito-Met analog (1 μM) for 1 h. Cells were lysed after washing and analyzed for Mito-Met analog by LC-MS.

[8] = target: T1, mitochondrial complex I (Homo sapiens, UniProt O75251+O75306+P03886); assay: Complex I oxygen consumption (pyruvate/malate-driven OCR) in permeabilized cells, Seahorse XF96; assay type: cell-based; parameters: IC50, complex I oxygen consumption; other: permeabilized MiaPaCa-2, added acutely; details: permeabilized MiaPaCa-2, added acutely
Description: as §2
(§3) The oxygen consumption rate was measured using the permeabilized MiaPaCa-2 cells in MAS buffer supplemented with pyruvate. The use of permeabilized cells avoids differences in cellular uptake of compounds. […] We tested the effect of pretreating cells with Mito-Met10 or Met using the permeabilized model. […]
Target sequence in this assay (P03886 whole entry): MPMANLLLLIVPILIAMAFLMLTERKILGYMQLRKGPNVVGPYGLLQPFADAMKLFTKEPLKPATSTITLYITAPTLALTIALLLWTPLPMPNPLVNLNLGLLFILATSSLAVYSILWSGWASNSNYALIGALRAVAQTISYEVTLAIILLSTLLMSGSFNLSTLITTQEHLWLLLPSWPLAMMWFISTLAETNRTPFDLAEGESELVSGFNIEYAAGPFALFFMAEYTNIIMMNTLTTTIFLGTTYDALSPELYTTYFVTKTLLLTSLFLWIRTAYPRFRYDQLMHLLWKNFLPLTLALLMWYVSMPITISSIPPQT
Target sequence in this assay (O75251 39-213): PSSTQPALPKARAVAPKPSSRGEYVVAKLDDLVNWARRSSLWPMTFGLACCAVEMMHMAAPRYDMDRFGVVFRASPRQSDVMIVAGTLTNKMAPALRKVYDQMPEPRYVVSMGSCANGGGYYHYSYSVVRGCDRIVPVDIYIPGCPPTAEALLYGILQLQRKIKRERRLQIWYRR
Target sequence in this assay (O75306 34-463): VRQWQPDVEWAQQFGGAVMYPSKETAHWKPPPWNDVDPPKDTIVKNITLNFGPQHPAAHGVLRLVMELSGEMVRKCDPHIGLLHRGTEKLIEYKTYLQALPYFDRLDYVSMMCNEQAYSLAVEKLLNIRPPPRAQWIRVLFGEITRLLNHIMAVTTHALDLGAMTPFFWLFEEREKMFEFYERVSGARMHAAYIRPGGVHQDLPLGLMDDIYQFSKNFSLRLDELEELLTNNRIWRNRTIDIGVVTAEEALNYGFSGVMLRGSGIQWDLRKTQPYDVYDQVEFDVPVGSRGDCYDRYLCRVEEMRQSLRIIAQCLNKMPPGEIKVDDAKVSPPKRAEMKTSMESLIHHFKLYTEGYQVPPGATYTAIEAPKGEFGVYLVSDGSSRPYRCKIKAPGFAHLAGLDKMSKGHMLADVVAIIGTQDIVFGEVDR

[9] = tested on: MiaPaCa-2 cells; assay: Sytox Green cytotoxicity assay; assay type: cell-based; details: MiaPaCa-2, 24 h, 100 μM
Description: Cytotoxicity assay. To determine the cytotoxicity of Mito-Met analogs and other TPP^+-conjugated to a long chain aliphatic hydrocarbon, we used the Sytox assay as described previously. MiaPaCa-2 cells were treated for 24 h, and dead cells were monitored in the presence of 200 nM Sytox Green (Invitrogen). The Sytox method labels the nuclei of dead cells yielding green fluorescence. Fluorescence intensities from the dead cells in 96-well plate were acquired in real time every 15 min after 4 h using a plate reader (BMG Labtech, Inc.) equipped with an atmosphere controller set at 37° C. and 5% CO2:95% air, using a fluorescence detection with 485 nm (excitation) and 535 nm (emission). To measure the total cell number, all of the samples in each treatment group were permeabilized by adding Triton X 100 (0.065%) in the presence of Sytox Green for 3 h, and maximal fluorescence intensities were taken as 100%. Data are represented as a percentage of dead cells after normalization to total cell number for each group.

[10] = Tissue accumulation in FC1242-luc orthotopic mice; assay type: in vivo; details: 1 mg/kg daily for 2 weeks, tissues harvested 3 days after last treatment
Description: FIG. 19. Tissue accumulation of Mito-Met in in vivo FC1242-luc orthotopic mouse model. FC1242-luc orthotopic mice treated with Mito-Met10 (1 mg/kg) daily for 2 weeks. Tissue harvesting and extractions were performed 3 days after the last treatment. Quantitative data on concentrations of Mito-Met after normalization to tissue wet weight are represented as mean±SD, n=5.

[11] = tested on: HaCaT cells; assay: IncuCyte cell proliferation in nonmalignant cells; assay type: cell-based; details: HaCaT keratinocytes
Description: (§4) IncuCyte Analyzer-real time measurement of cell proliferation. The cell proliferation was measured using a label-free, noninvasive cellular confluence assay by IncuCyte Live-Cell Imaging Systems (Essen Bioscience, Ann Arbor, Mich., USA; IncuCyte FLR). This system enables collection of live cell images at 2 h intervals over several days. The IncuCyte Analyzer provides real-time cellular confluence data based on segmentation of high-definition phase-contrast images. The cell proliferation is expressed as an increase in percentage of cell confluence.

[12] = tested on: MCF-10A cells; assay: IncuCyte cell proliferation in nonmalignant cells; assay type: cell-based; details: MCF-10A breast epithelial cells
Description: as §4

[13] = target: T1, mitochondrial complex I; assay: Complex I oxygen consumption (pyruvate/malate-driven OCR) in permeabilized cells, Seahorse XF96; assay type: cell-based; details: 24 h treatment, then permeabilized
Description: as §2, §3
Target sequence in this assay (O75251 39-213): as the sequence (O75251 39-213) above
Target sequence in this assay (O75306 34-463): as the sequence (O75306 34-463) above
Target sequence in this assay (P03886 whole entry): as the sequence (P03886 whole entry) above

[14] = tested on: MiaPaCa-2 cells; assay: Clonogenic assay (colony formation, survival fraction); assay type: cell-based, human; details: for colony formation: 24 h; for IC50: Homo sapiens, MIA PaCa-2, 24 h, read-out: IC50, colony formation / survival fraction
Description: Clonogenic assay. […] The plates were kept within the incubator and media changed every 3-4 days until the control cells formed sufficiently large clones. The cell survival fractions were calculated as previously described.

[15] = tested on: MiaPaCa-2 cells; assay: IncuCyte real-time cell proliferation (cell confluence); assay type: cell-based, human
Description: Cell proliferation was measured using a label-free, non-invasive cellular confluence assay employing the IncuCyte™ Live-Cell Imaging Analyzer (Essen Bioscience). This system provides real-time cellular confluence data based on segmentation of high definition phase contrast images. MiaPaCa2 (1,000 cells/well) were seeded overnight on a 96-well plate, placed in an XL-3 incubation chamber maintained at 37 C. and cells photographed and confluence calculated every 2 hr by IncuCyte software. MiaPaCa2 cells were treated with Met (1 and 2 mM) or Mito-Met-C10 (1-2 μM).
as §4

[16] = tested on: AMPK; assay: AMPK activation immunoblot (phospho-Thr-172 / total AMPK); assay type: cell-based, human; details: MiaPaCa-2
Description: In this example, the inventors have shown that the mito-met compounds of the present invention cause an increased AMPK activation in cancer cells. In preliminary experiments (FIG. 4), human MiaPaCa2 and murine FC1199 PDAC cells treated 30 min with 1 μM mito-met (MM), 1 mM Met, or the oligomycin positive control were lysed, and proteins size-separated on SDS-PAGE, transferred to PVDF, and probed with an antibody to phosphorylated AMPK Thr-172.
Immunoblotting. MiaPaCa-2 PDAC cells (1×10^6) were plated to 80% confluency in 60 mm dishes and then serum-starved for 5 hours. […] Cells were stimulated with oligomycin as a positive control. After stimulation, cells were washed twice in cold PBS and lysed using a modified RIPA buffer. Lysates were normalized for protein concentration, size separated using reducing SDS-PAGE, electro-transferred to PVDF membranes (Millipore) and then probed using primary and horseradish peroxidase-conjugated secondary antibodies. Antibodies against total or phosphorylated 5′ AMP-activated protein kinase (AMPK) were purchased from Cell Signaling Technology (Danvers, Mass.) and used at the manufacturer's recommended dilutions. Proteins were visualized by chemiluminescence with auto-exposure and quantified by densitometric analysis using the FluorChem HD2 from Cell Biosciences (Santa Clara, Calif.).

[17] = intact MiaPaCa-2, immediately after addition

SMILES: N=C(N)NC(=N)NCCCCCCCCCC[P+](c1ccccc1)(c1ccccc1)c1ccccc1.[Br-] [Mito-Met10]
- fold lower concentration than Met for enhancement of radiation sensitivity ([1]; 1 μM versus Met 1 mM): 1,000 fold
- PDAC radiosensitivity ([1]; 1 μM): as effective as 1 mM Met
- radiosensitivity in normal cells [2]: no radiosensitivity was observed
- spheroid growth [3]: potently inhibited
- toxicity in vivo (hepatic and kidney) [4]: neither Met nor the mitochondria-targeted analog Mito-Met elicited toxicity in vivo
- in vivo tumor growth relative to Met [5]: considerably more potent than Met
- in vivo tumor growth relative to Met ([5]; listed as Mito-Met): considerably more effective than Met
- therapeutic index, fold greater than Met ([5]; in vivo experiments): ~1,000 fold
- OCR inhibition ([6]; 1 μM): did not inhibit OCR
- concentration that inhibited OCR [6]: 1 µM
- OCR inhibition ([6]; ≈10 μM): slight inhibition
- difference in intracellular uptake and retention, MiaPaCa-2 and MCF-10A cells ([7]; LC-MS (FIG. 14C)): four-fold
- cellular uptake, fold higher than phenformin ([7]; MiaPaCa-2, 1 μM, 1 h): ~100 fold
- concentration that inhibited OCR [8]: 10 µM
- cell death (Sytox Green) [9]: no detectable cell death
- tissue accumulation [10]: increased accumulation of this compound in liver, kidney, spleen, and tumor
- cell proliferation (confluence) of nonmalignant cells [11]: not significantly affected
- cell proliferation (confluence) of nonmalignant cells [12]: not significantly affected
- concentration giving significant decrease in OCR (complex I inhibition) [13]: 0.75 µM
- colony formation ([14]; 3 μM): Almost no colony formation
- IC50 [14]: 1.1 µM
- fold more effective than metformin in inhibiting MiaPaCa-2 cell proliferation ([14]; clonogenic, 24 h treatment (FIG. 5)): ~1,000 fold
- fold more effective than Met in inhibiting PDAC proliferation [15]: ~1,000 fold and > 1,000 fold
- inhibition at 0.2 µM ([15]; Homo sapiens, MIA PaCa-2, 0.2 μM, read-out: inhibition of cell growth): 70%
- inhibition at 1 µM ([15]; Homo sapiens, MIA PaCa-2, 1 μM, read-out: inhibition of cell growth): > 90%
- IC50 ([15]; Homo sapiens, MIA PaCa-2, MiaPaCa-2, read-out: IC50 (FIG. 12B, cell confluence)): 0.84 µM
- AMPK activation, fold more potent / lower concentration than metformin [16]: ~1,000 fold

SMILES: N=C(N)NC(=N)NCC[P+](c1ccccc1)(c1ccccc1)c1ccccc1.[Br-] [Mito-Met2]
- concentration that inhibited OCR [6]: 25 µM

SMILES: CN(C)C(=N)N=C(N)N [Metformin]
- PDAC radiosensitivity ([1]; 1 mM): increased radio-sensitization
- PDAC radiosensitivity ([1]; 1 mM, listed as Met): increased radiosensitization
- concentration that dose-dependently decreased oxygen consumption [6, 17]: 1 to 10 mM
- concentration that inhibited OCR [8]: 3,000 μM
- cell proliferation (confluence) of nonmalignant cells [11]: not significantly affected
- cell proliferation (confluence) of nonmalignant cells [12]: not significantly affected
- colony formation ([14]; 3 mM): Almost no colony formation
- IC50 [14]: 1300 µM
- inhibition at 1000 µM ([15]; Homo sapiens, MIA PaCa-2, 1,000 μM, read-out: inhibition of cell growth): 80%

SMILES: COC1=C(OC)C(=O)C(CCCCCCCCCC[P+](c2ccccc2)(c2ccccc2)c2ccccc2)=C(C)C1=O [Mito-Q]
- cell death (Sytox Green) [9]: considerably more cytotoxic

SMILES: [H]/N=C(/N)N/C(=N/[H])NCCc1ccccc1 [Phenformin, reference compound]
- concentration inhibiting OCR to the same extent as Met [6, 17]: ten-fold lower concentration

SMILES: CC1(C)CC(OCCCCC[P+](c2ccccc2)(c2ccccc2)c2ccccc2)CC(C)(C)N1[O].[Br-] [Mito-Tempol]
- cell death (Sytox Green) [9]: considerably more cytotoxic

Reference: patent US11274114B2, “Modified mito-metformin compounds and methods of synthesis and use thereof” (THE MEDICAL COLLEGE OF WISCONSIN, INC., priority 2014, dated 2022)
